Measured values from patent publication US8475848B2, “Cosmetic composition having anti-radical properties and corresponding application method” (Yves Saint Laurent Parfums, priority 2007, dated 2013).

Experiments:
[1] = DPPH test on pure extracts (reduction of DPPH, optical density); assay type: biochemical; conditions: for % control (OD) / Activity (DPPH reduction): DPPH test
Source text: (§1) The activity of the pure extracts was studied by means of two biochemical tests: one was based on the reduction of 2,2-diphenyl-1-picrylhydrazyl (DPPH) by the anti-oxidants, and the other was based on the measurement of hydrogen peroxide (H2O2) in the reaction media. H2O2 is trapped by a specific reagent, “AmplexRed”. 2,2-diphenyl-1-picrylhydrazyl (DPPH) is a stable radical compound that is reduced to 1,1-diphenyl-2-picrylhydrazine by anti-oxidants. This reduction is followed by a color change in the DPPH solution (optical density measurement).
(§2) The pure extracts as well as the anti-oxidant references (α-tocopherol and BHA: butylated hydroxyanisole for DPPH, BHA alone for AmplexRed) were dissolved in ethanol. Controls using ethanol alone were produced in order to verify the absence of interference of this solvent.
The products for this test were tested starting from a concentration of 1 mg/ml in a power of ten series. The alpha-tocopherol positive control was tested at a concentration of 0.1 μM [micromolar] and the BHA was tested at a concentration of 50 μM.

[2] = H2O2/AmplexRed test on pure extracts (fluorescence); assay type: biochemical
Source text: as §1
AmplexRed is a compound which reacts in a stoichiometric manner with H2O2, producing a fluorescent red compound, resofurin, which can be measured by fluorescence. This test can detect small quantities of H2O2.
as §2
The products for this test were tested starting from a concentration of 1 μg/ml in a power of ten series. The BHA positive control was tested at concentrations of 50 μM and 500 μM.

irradiated skin explants = test: Lipid peroxidation test on irradiated skin explants, extracts associated with an insoluble mineral substrate dispersed in carnation oil; assay type: cell-based; conditions: reference (positive control), 5 mg/cm^2 topical, UVA+B
Protocol: Study of the activity of extracts associated with an insoluble mineral substrate dispersed in carnation oil were carried out using a lipid peroxidation test on irradiated skin explants. This test, which was carried out by applying the products topically, meant that the effects of non-hydrosoluble extracts could be studied in vitro.
Upon receipt, the skin explants were cut and placed in culture.
The test products or the reference (positive control=BHA) were then applied to the surface of the explants in a quantity of 5 mg/cm^2 [milligrams/square centimeter] and the explants were placed in an incubator for 24 h [hours] at 37° C. in the presence of 95% air and 5% CO2.
After incubation and washing, the explants for each series were exposed to irradiation using ultraviolet A and B (UVA+B) radiation. Irradiation was carried out using a SOL500 Sun Simulator lamp with an H2 filter and the exposure conditions were as follows: • UVA+B filter: • UVA: power 11.5 mW/cm^2 [milliwatt/square centimeter] i.e. 678.6 mJ/cm^2/minute [millijoule/square centimeter/minute]; • UVB: power 0.78 mW/cm^2, i.e. 47.1 mJ/cm^2/minute; • Irradiation period: 21 minutes; • i.e. approximately 1 J/cm^2 of UVB and 14 J/cm^2 of UVA.
Three other untreated control explants were kept away from the light. […]
The epidermis was then extracted and the viability of the cells was evaluated using MTT reduction. […]

Row | Structure (SMILES) | % control (OD) ([1]; 50 μM) | Activity (DPPH reduction) ([1]; 50 μM) | % control (fluorescence intensity) ([2]; 50 μM) | Activity (reduction of free H2O2) ([2]; 50 μM) | % control (fluorescence intensity) ([2]; 500 μM) | Activity (reduction of free H2O2) ([2]; 500 μM) | production of lipid peroxides after irradiation (in words) (irradiated skin explants) | % control (OD) ([1]; 0.1 μM) | Activity (DPPH reduction) ([1]; 0.1 μM) | reduction of DPPH (in words) ([1]; reference, 0.1 μM)
1 | COc1ccc(O)c(C(C)(C)C)c1 [BHA, butylated hydroxyanisole] | 74% | +/− (25% reduction) | 38% | ++ (strong reduction more than 50%) | 34% | ++ (strong reduction more than 50%) | greatly reduced the production of lipid peroxides |  |  | 
2 | Cc1c(C)c2c(c(C)c1O)CC[C@@](C)(CCC[C@H](C)CCC[C@H](C)CCCC(C)C)O2 [Tocopherol, α-tocopherol] |  |  |  |  |  |  |  | 9% | ++ (large reduction more than 50%) | clearly reduced the DPPH
